From patent publication US9738669B2, “Pentaaza macrocyclic ring complexes possessing oral bioavailability” (Galera Labs, LLC, priority 2015, dated 2017)
Blank lines part the entries; values can stand above or below the compound they belong to.

Assays:
[1] = test system: lethal total body irradiation of adult mice; conditions: ip; cited from earlier work
[2] = test system: rat model of inflammation; conditions: ip; cited from earlier work
[3] = test system: hamster model of acute, radiation-induced oral mucositis; conditions: ip; cited from earlier work
[4] = test system: rat model of collagen-induced arthritis; conditions: ip; cited from earlier work
[5] = Intraduodenal (id) bioavailability screen in minipigs, plasma level of parent Mn complex by HPLC/MS/MS; assay type: in vivo, Gottingen minipig; conditions: id 10 mg/kg, vs 1 mg/kg iv parent chloro complex, AUC0→24 h
Method: Compounds were screened for oral bioavailability by injecting the formulated prodrugs directly into the duodenum (intraduodenal or id administration) of the minipig test subjects, thus bypassing the acidic environment of the stomach and thereby eliminating potentially misleading oral bioavailability results that could arise from alteration of the test article drug in the acid environment of the stomach.
The studies were conducted at Xenometrics LLC (Stillwell, Kans.) and the id bioavailability was determined using various axial ligand derivative complexes of GC4419, GC4444, GC4403 and GC4401.
Male Gottingen minipigs (4-5 mo old, 9-12 kg weight) were purchased from Marshall BioResources and housed at Xenometrics. […] The distal end was exteriorized with a reusable accessible hub (see surgical details below). During a recovery period of at least 2 weeks the minipigs were handled daily to acclimate them to the test procedures, i.e., id dosing and blood collections. For each experiment, each minipig received a test article drug dissolved or suspended in an excipient vehicle. […] All dosing experiments were conducted in fasted animals. Food was withdrawn from the minipigs 16 hours before dosing. The minipigs had ad libitum access to water. Dosed minipigs were allowed access to food 6 hour after dosing. The test article was administered at a dose of 10 mg/kg parent drug in 0.1 mL/kg vehicle (e.g., 1.5 mL in 15 kg minipig) as a bolus injection (˜1 minute) via the id cannula. The actual amount of total test article drug administered varied with the formula weight of the prodrug. An equal volume of excipient vehicle was used to flush the cannula after the test article was administered. Approximately 6 hours later, corn oil was used to flush the cannula. After approximately 24 hours post-dose, the catheter was flushed with sterile saline solution and capped. At the following time-points 0.25, 0.5, 1, 2, 4, 8, 24 and 48 hour post-injection, 2 mL blood samples were collected by cranial vena cava puncture (4 mL Sodium heparin Vacutainer, 20 g 1.5″ needle) after the skin surface was wiped with ethanol. The minipig was placed in a sling in a recumbent position without anesthesia for the collection of blood samples. The minipigs were never used more than once per 7 days for experimentation. The blood samples were kept on ice until processed for plasma. Blood samples were centrifuged at 1200×g for ten minutes at 4° C. and plasma samples were transferred to 96 well plate tubes, capped and stored at −20° C. until shipment on dry ice to the analytical laboratory used for measuring the concentration of drug in the plasma. The concentration of the parent manganese pentaaza macrocylic ring complex (independent of the composition of the axial ligands) was measured in plasma using a validated HPLC/MS/MS method that is linear between 50 ng/mL and 20,000 ng/mL.
The oils used for preparing the dosing solutions were used as supplied from commercial sources. The Capmul MCM (NF) is a mixture of mono/diglycerides of caprylic/capric acids and was supplied by ABITEC Corporation, Janesville, Wis. The Miglyol 812 N is a mixture of caprylic/capric acid triglycerides and was supplied by Cremer Oleo Division, Eatontown, N.J. Labrafil M 2125 CS (NF) is chemically defined to be linoleoyl polyoxyl-6 glycerides NF and was supplied by Gattefosse, SAINT-PRIEST Cedex, France. Peceol is chemically defined to be the monoglyceride, glyceryl monooleate NF, and was supplied by Gattefosse, SAINT-PRIEST Cedex, France. Maisine 35-1 is chemically defined to be the monoglyceride glyceryl monolinoleate (NF) and was supplied by Gattefosse, SAINT-PRIEST Cedex, France. Labrasol (NF) is chemically defined to be caprylocaproyl polyoxyl-8 glycerides NF and was supplied by Gattefosse, SAINT-PRIEST Cedex, France. Labrafil M 1944 CS is chemically defined to be oleoyl polyoxyl-6 glycerides (NF), and is available from Gattefosse, SAINT-PRIEST Cedex, France. […]

[6] = test system: rats subjected to an experimental model of colitis; conditions: ip injection; cited from earlier work
Solubility in water = assay type: physicochemical
[7] = test system: VEGFr inhibitor-induced pulmonary disease; conditions: ip, rat model; cited from earlier work
[8] = test system: oral mucositis in head-and-neck cancer patients; conditions: intravenous (iv) infusion, head-and-neck cancer patients undergoing chemoradiation therapy; cited from earlier work
[9] = base oil Capmul MCM, 10% by weight
[10] = base oil Miglyol 812N, 10% by weight

Compound: [Cl-].[Cl-].[Mn+2].c1cc2nc(c1)CN[C@@H]1CCCC[C@H]1NCCN[C@@H]1CCCC[C@H]1NC2 [GC4403]
radiation damage [1]: attenuate the radiation damage
inflammation [2]: inhibit inflammation
radiation damage [3]: attenuate the radiation damage
joint disease [4]: prevent joint disease
Mini-Pig BioA [5, 9]: 9%
injury to the colon [6]: significantly reduce the injury to the colon

Mini-Pig BioA [5, 9]: 9%
Mini-Pig BioA ([5]; base oil Labrafil M2125 CS, 10% by weight): 7%
Mini-Pig BioA ([5]; base oil Maisine 35-1, 10% by weight): 8%
Mini-Pig BioA [5, 10]: 8%
Mini-Pig BioA ([5]; base oil Peceol, 10% by weight): 9%
solubility in water (Solubility in water): relatively readily soluble in water
Compound: [Cl][Mn][Cl].c1cc2nc(c1)CN[C@H]1CCCC[C@@H]1NCCN[C@H]1CCCC[C@@H]1NC2 [GC4419, reference compound]
VEGFr inhibitor-induced pulmonary disease [7]: attenuate VEGFr inhibitor-induced pulmonary disease
oral mucositis [8]: reduce oral mucositis

Mini-Pig BioA [5, 9]: 36%
Compound: Manganese(II)bis-racemic-phenylglycinato[2S,21S-Dimethyl(4aR,13aR,17aR,21aR)-1,2,3,4,4a,5,6,12,13,13a,14,15,16,17,17a,18,19,20,21,21a-Eicosahydro-11,7-nitrilo-7H-dibenzo[b,h][1,4,7,10]tetraazacycloheptadecine-κN5,κN13,κN18,κN21,κN22]- [GC4715]

Mini-Pig BioA [5, 9]: 34%
Compound: Manganese(II)bis-racemic-phenylglycinato[6R-Methyl(4aR,13aR,17aR,21aR)-1,2,3,4,4a,5,6,12,13,13a,14,15,16,17,17a,18,19,20,21,21a-Eicosahydro-11,7-nitrilo-7H-dibenzo[b,h][1,4,7,10]tetraazacycloheptadecine-κN5,κN13,κN18,κN21,κN22]- [GC4716]

Mini-Pig BioA [5, 9]: 26%
Compound: Manganese(II)bis-racemic-phenylglycinato[(4aR,13aR,17aR,21aR)-1,2,3,4,4a,5,6,12,13,13a,14,15,16,17,17a,18,19,20,21,21a-Eicosahydro-11,7-nitrilo-7H-dibenzo[b,h][1,4,7,10]tetraazacycloheptadecine-κN5,κN13,κN18,κN21,κN22]- [GC4717]

Mini-Pig BioA [5, 9]: 33%
Mini-Pig BioA [5, 10]: 32%
Compound: Manganese(II)bis-racemic-phenylglycinato[(4aS,13aS,17aS,21aS)-1,2,3,4,4a,5,6,12,13,13a,14,15,16,17,17a,18,19,20,21,21a-Eicosahydro-11,7-nitrilo-7H-dibenzo[b,h][1,4,7,10]tetraazacycloheptadecine-κN5,κN13,κN18,κN21,κN22]- [GC4720]
